Two compounds from US20260285850A1, “SUBSTITUTED OXAZOLIDINONES AND IMIDAZOLINONES AS HERBICIDES” (FMC CORPORATION, priority 2023, published 2026) can be followed below.

Common to all, as to type: in vivo
Experiment [1] has as its system horseweed (Erigeron canadensis). The experiment can be described thus: Test A postemergence application, visual injury rating 0-100. The following applies: Postemergence, 1000 g ai/ha, 0 to 100 scale, 10 days. The essentials: (§1)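 Plants were grown in a loam soil-sand blend and treated with test chemical in a non-phytotoxic solvent mixture containing surfactant, either sprayed on soil preemergence or applied postemergence to 2-10 cm plants. After 10 days in a greenhouse, injury was scored visually against untreated controls, 0 meaning no effect and 100 complete control.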

Experiment [2] concerns galium (catchweed bedstraw, Galium aparine). Described as above. The following applies: Postemergence, 1000 g ai/ha, 0 to 100 scale, 10 days. The essentials:
as §1

Experiment [3] relates to blackgrass (Alopecurus myosuroides). Described as above. Particulars: Postemergence, 1000 g ai/ha, 0 to 100 scale, 10 days. The essentials: as §1
The test system of experiment [4] is ryegrass, Italian (italian ryegrass, Lolium multiflorum). The experiment is described as above. The following applies: Postemergence, 1000 g ai/ha, 0 to 100 scale, 10 days. The essentials: as §1
For experiment [5], the system named is goosegrass (Eleusine indica). The description is as above. The following applies: 1000 g ai/ha, 0 to 100 scale, 10 days. The essentials:
as §1

The subject of experiment [6] is foxtail, giant (giant foxtail, Setaria faberi). The experiment is described as above. The following applies: 1000 g ai/ha, 0 to 100 scale, 10 days. The essentials: as §1
In experiment [7] the test system is ragweed (common ragweed, Ambrosia artemisiifolia). The experiment is described as above. Particulars: Postemergence, 1000 g ai/ha, 0 to 100 scale, 10 days. The essentials: as §1
Experiment [8] concerns palmer (palmer amaranth, palmer pigweed, Amaranthus palmeri). Described as above. The following applies: Postemergence, 1000 g ai/ha, 0 to 100 scale, 10 days. The essentials:
as §1

Experiment [9] has as its system kochia (Bassia scoparia). Described as above. The following applies: Postemergence, 1000 g ai/ha, 0 to 100 scale, 10 days. The essentials:
as §1

Experiment [10] has as its system blackgrass (Alopecurus myosuroides). Put plainly: Test A preemergence soil spray, visual injury rating 0-100. The following applies: 1000 g ai/ha, 10 days, 0 = no effect, 100 = complete control. The essentials: as §1
Experiment [11] has as its system ryegrass, Italian (italian ryegrass, Lolium multiflorum). The experiment is described as above. Particulars: 1000 g ai/ha, 10 days, 0 = no effect, 100 = complete control. The essentials:
as §1

For experiment [12], the system named is goosegrass (Eleusine indica). The experiment is described as above. The following applies: 1000 g ai/ha, 10 days, 0 = no effect, 100 = complete control. The essentials:
as §1

Experiment [13] relates to foxtail, giant (giant foxtail, Setaria faberi). Described as above. Particulars: 1000 g ai/ha, 10 days, 0 = no effect, 100 = complete control. The essentials:
as §1

The test system of experiment [14] is ragweed (common ragweed, Ambrosia artemisiifolia). The description is as above. The following applies: 1000 g ai/ha, 10 days, 0 = no effect, 100 = complete control. The essentials: as §1
Experiment [15] concerns palmer (palmer amaranth, palmer pigweed, Amaranthus palmeri). Described as above. Particulars: 1000 g ai/ha, 10 days, 0 = no effect, 100 = complete control. The essentials:
as §1

Experiment [16] has as its system kochia (Bassia scoparia). Described as above. The following applies: 1000 g ai/ha, 10 days, 0 = no effect, 100 = complete control. The essentials:
as §1

Experiment [17] has as its system barnyardgrass (Echinochloa crusgalli). Put plainly: Test B flooded paddy test, visual plant response rating 0-100. Particulars: 250 g ai/ha, Flood, applied to paddy water, evaluated after 13 days. The essentials:
(§2)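 Greenhouse, 13 d. Seedlings at 2-leaf stage, pots flooded to 3 cm, compound delivered into floodwater, water level held constant. Evaluated visually relative to controls.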

Experiment [18] deals with ducksalad (Heteranthera limosa). Described as above. Particulars: 250 g ai/ha, Flood, applied to paddy water, evaluated after 13 days. The essentials:
as §2

The next experiment deals with rice (Oryza sativa). The experiment is described as above. Particulars: 250 g ai/ha, Flood, applied to paddy water, evaluated after 13 days. The essentials:
as §2

The subject of experiment [19] is sedge, umbrella (small-flower umbrella sedge, Cyperus difformis). The experiment is described as above. The following applies: 250 g ai/ha, Flood, applied to paddy water, evaluated after 13 days. The essentials:
as §2

As for `CNC(=O)C1C=CC(NC(=O)C2(C)CN(c3cc(F)cc(F)c3)C(=O)O2)C1` (centres unmarked) [Compound 26], the “Horseweed plant response rating” value in experiment [1] amounted to 70. In addition, the “Galium plant response rating” value in experiment [2] turned out to be 70. The “Blackgrass plant response rating” value in experiment [3] is 90. The “Ryegrass, Italian plant response rating” value in experiment [4] came out at 70. In addition, the “Goosegrass plant response rating” value in experiment [5] is recorded as 90. For the same compound, the “Foxtail, Giant plant response rating” value in experiment [6] is reported as 90. Further, the “Ragweed plant response rating” value in [7] is on record as 50. In experiment [8], the “Amaranth, Palmer plant response rating” value is 90. For the same compound, in the experiment with kochia (Bassia scoparia) [9], the “Kochia plant response rating” value is listed as 80. Also, the “Blackgrass plant response rating (0 to 100 scale)” value in [10] is 100. Moreover, the “Ryegrass, Italian plant response rating (0 to 100 scale)” value in experiment [11] is reported as 100. Further, the “Goosegrass plant response rating (0 to 100 scale)” value in experiment [12] was 100. Moreover, the “Foxtail, Giant plant response rating (0 to 100 scale)” value in [13] is recorded as 100. In addition, the “Ragweed plant response rating (0 to 100 scale)” value in [14] turned out to be 90. Also, the “Amaranth, Palmer / Pigweed, Palmer plant response rating (0 to 100 scale)” value in experiment [15] was 100. Also, the “Kochia plant response rating (0 to 100 scale)” value in the experiment with kochia (Bassia scoparia) [16] is on record as 90. Besides, the “Plant response rating, Barnyardgrass (0 to 100 scale, 0 is no effect and 100 is complete control)” value in experiment [17] turned out to be 45. Besides, the “Plant response rating, Ducksalad (0 to 100 scale, 0 is no effect and 100 is complete control)” value in experiment [18] is given as 95. Moreover, the “Plant response rating, Rice (0 to 100 scale, 0 is no effect and 100 is complete control)” value with rice (Oryza sativa) was 35. For the same compound, the “Plant response rating, Sedge, Umbrella (0 to 100 scale, 0 is no effect and 100 is complete control)” value in experiment [19] is recorded as 95.
`COC(=O)[C@@H]1C=C[C@H](NC(=O)C2(C)CN(c3cc(F)cc(F)c3)C(=O)O2)C1` (stereo partly drawn) [Compound 27, Methyl (1S,4R)-4-[[[3-(3,5-difluorophenyl)-5-methyl-2-oxo-5-oxazolidinyl]carbonyl]amino]-2-cyclopentene-1-carboxylate]: in experiment [1], the “Horseweed plant response rating” value is 80. The “Blackgrass plant response rating” value in experiment [3] was 90. Further, in experiment [4], the “Ryegrass, Italian plant response rating” value is recorded as 100. Moreover, the “Goosegrass plant response rating” value in [5] turned out to be 90. Also, in [6], the “Foxtail, Giant plant response rating” value was 90. Further, the “Ragweed plant response rating” value in [7] stood at 80. Moreover, in [8], the “Amaranth, Palmer plant response rating” value was found to be 90. In addition, in the experiment on kochia (Bassia scoparia) [9], the “Kochia plant response rating” value amounted to 80. Also, the “Ryegrass, Italian plant response rating (0 to 100 scale)” value in experiment [11] was found to be 100. Also, the “Goosegrass plant response rating (0 to 100 scale)” value in experiment [12] came out at 100. In addition, in [13], the “Foxtail, Giant plant response rating (0 to 100 scale)” value is recorded as 100. Moreover, the “Ragweed plant response rating (0 to 100 scale)” value in [14] stood at 50. For the same compound, the “Amaranth, Palmer / Pigweed, Palmer plant response rating (0 to 100 scale)” value in experiment [15] was found to be 100. The “Kochia plant response rating (0 to 100 scale)” value in the experiment on kochia (Bassia scoparia) [16] worked out at 100. Moreover, the “Plant response rating, Barnyardgrass (0 to 100 scale, 0 is no effect and 100 is complete control)” value in experiment [17] was found to be 90. Besides, the “Plant response rating, Ducksalad (0 to 100 scale, 0 is no effect and 100 is complete control)” value in experiment [18] was 85. In addition, the “Plant response rating, Rice (0 to 100 scale, 0 is no effect and 100 is complete control)” value with rice (Oryza sativa) worked out at 35. The “Plant response rating, Sedge, Umbrella (0 to 100 scale, 0 is no effect and 100 is complete control)” value in [19] is listed as 50.
